In US12492193B2, “Pyrazole derivatives for the treatment of cystic fibrosis” (Fondazione Istituto Italiano Di Tecnologia, priority 2017, dated 2025):

Assays:
mutant CFTR = target: T1, mutant CFTR (Homo sapiens, UniProt P13569, DEL508-508); experiment: Fluorescence (HS-YFP) assay for CFTR activity, corrector assay; format: cell-based; conditions: CFBE41o- and FRT cells with stable expression of mutant CFTR, 24 h compound treatment
T1 construct: expressed in transfected cells
Method in brief: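 CFBE41o- or FRT cells stably expressing mutant CFTR and HS-YFP were exposed to compounds for 24 h (corrector mode), then stimulated 30 min at 37° C with forskolin (20 μM) plus genistein (50 μM). YFP quenching after 100 mM iodide injection; initial slope from exponential fit of final 10 s; EC50 reported.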

F508del-CFTR = F508del-CFTR (Homo sapiens, UniProt P13569, DEL508-508); experiment: Short-circuit current recordings on human bronchial epithelial cells (F508del/F508del); format: cell-based; set-up: Human bronchial epithelial (HBE) cells obtained from CF patients (F508del/F508del genotype); endogenous in cells; host or cells: primary human bronchial epithelial cells from CF patients, F508del/F508del; conditions: HBE cells from CF patients (F508del/F508del), 24 hrs treatment; table 3
Experimental: Short-Circuit Current Recordings on Human Bronchial Epithelial Cells
Human bronchial epithelial (HBE) cells obtained from CF patients (F508del/F508del genotype) were plated on Snapwell inserts (Code 3801, Corning Life Sciences) at a density of 500,000 cells per insert. Cells were cultured for two weeks in a differentiating medium whose compositions has been previously described (Scudieri et al., J Physiol 590:6141-6155, 2012). For the first week, the medium was kept on both apical and basolateral sides of inserts (submerged condition). For the second week, the apical medium was removed (air-liquid condition, ALC). To test the activity of correctors, cells were treated for 24 hrs with compounds dissolved in the basolateral medium. After treatment, Snapwell inserts carrying differentiated bronchial epithelia were mounted in a vertical chamber resembling an Ussing system with internal fluid circulation. Both apical and basolateral hemichambers were filled with 5 mL of a Krebs bicarbonate solution containing (in mM): 126 NaCl, 0.38 KH2PO4, 2.13 K2HPO4, 1 MgSO4, 1 CaCl2), 24 NaHCO3, and 10 glucose. Both sides were continuously bubbled with a gas mixture containing 5% CO2-95% air and the temperature of the solution was kept at 37° C. The transepithelial voltage was short-circuited with a voltage-clamp (DVC-1000, World Precision Instruments) connected to the apical and basolateral chambers via Ag/AgCl electrodes and agar bridges (1 M KCl in 1% agar). The offset between voltage electrodes and the fluid resistance were canceled before experiments. The short-circuit current was recorded with a PowerLab 4/25 (ADInstruments) analogical to digital converter connected to a Macintosh computer. […] The difference between the current measured with CPT-cAMP plus potentiator and the current remaining after CFTRinh-172 treatment (ΔICFTR) was taken as the parameter reflecting F508del-CFTR expression in the apical membrane.
Activities of selected compounds on HBE cells (expressed as ΔICFTR) are illustrated in table 3 wherein +: ΔICFTR<2.0 μA; ++: 2.0 μA<ΔICFTR<3.0 μA; +++: ΔICFTR>3.0 μA.

T1 sequence (P13569 with tags, fused parts or gaps DEL508-508): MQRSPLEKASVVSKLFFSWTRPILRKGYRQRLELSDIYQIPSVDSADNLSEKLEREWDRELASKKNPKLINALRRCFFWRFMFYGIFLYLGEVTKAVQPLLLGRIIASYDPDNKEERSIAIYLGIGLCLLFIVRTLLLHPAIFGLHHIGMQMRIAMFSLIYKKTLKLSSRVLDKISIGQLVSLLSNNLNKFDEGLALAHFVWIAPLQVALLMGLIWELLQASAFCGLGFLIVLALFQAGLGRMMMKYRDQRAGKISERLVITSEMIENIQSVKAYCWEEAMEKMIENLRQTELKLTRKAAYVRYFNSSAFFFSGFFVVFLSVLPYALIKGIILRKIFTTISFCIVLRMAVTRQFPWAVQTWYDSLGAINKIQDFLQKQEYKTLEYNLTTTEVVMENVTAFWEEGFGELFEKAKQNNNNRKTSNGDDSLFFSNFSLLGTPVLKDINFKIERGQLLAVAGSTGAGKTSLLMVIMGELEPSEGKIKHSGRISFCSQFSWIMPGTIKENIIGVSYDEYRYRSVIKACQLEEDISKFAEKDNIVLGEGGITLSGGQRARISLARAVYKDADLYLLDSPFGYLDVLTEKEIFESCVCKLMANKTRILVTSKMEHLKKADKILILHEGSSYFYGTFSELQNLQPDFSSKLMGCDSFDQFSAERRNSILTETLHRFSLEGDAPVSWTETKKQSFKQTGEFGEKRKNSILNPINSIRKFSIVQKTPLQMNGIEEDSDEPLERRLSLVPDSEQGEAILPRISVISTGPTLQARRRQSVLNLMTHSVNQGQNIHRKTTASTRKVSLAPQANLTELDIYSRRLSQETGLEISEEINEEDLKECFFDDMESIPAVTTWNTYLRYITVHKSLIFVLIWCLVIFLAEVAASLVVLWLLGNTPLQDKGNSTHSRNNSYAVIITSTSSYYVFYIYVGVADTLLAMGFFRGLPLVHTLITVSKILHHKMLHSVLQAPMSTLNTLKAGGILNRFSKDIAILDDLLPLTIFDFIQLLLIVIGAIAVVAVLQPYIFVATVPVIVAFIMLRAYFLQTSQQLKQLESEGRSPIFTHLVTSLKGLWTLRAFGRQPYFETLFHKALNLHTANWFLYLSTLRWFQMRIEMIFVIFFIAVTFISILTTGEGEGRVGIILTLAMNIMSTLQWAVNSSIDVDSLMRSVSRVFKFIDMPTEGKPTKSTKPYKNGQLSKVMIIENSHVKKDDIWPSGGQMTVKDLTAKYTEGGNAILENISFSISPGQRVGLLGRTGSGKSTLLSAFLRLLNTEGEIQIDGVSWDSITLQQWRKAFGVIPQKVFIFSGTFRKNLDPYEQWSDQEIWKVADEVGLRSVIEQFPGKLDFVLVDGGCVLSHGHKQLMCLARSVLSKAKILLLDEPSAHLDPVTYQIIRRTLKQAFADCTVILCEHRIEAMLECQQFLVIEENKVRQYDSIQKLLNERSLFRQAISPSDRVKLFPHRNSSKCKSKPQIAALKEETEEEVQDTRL
F508del-CFTR, sequence (P13569 with tags, fused parts or gaps DEL508-508): as above

| SMILES | EC50 (mutant CFTR) [nM] | activity on HBE cells (ΔICFTR) (F508del-CFTR) |
| --- | --- | --- |
| Cc1nn(-c2cccc(C(=O)N(C)c3ccc4c(c3)OCO4)c2)c(COc2ccc(C(=O)O)cc2)c1Cl [compound 144, 4-[[2-[3-[1,3-Benzodioxol-5-yl(methyl)carbamoyl]phenyl]-4-chloro-5-methyl-pyrazol-3-yl]methoxy]benzoic acid] | < 1000 | ++ (2.0 μA<ΔICFTR<3.0 μA) |
| COC(=O)C12CC(COc3cc(C(F)(F)F)nn3-c3cccc(C(=O)N(C)c4ccc5c(c4)OC(F)(F)O5)c3)(C1)C2 [compound 254, Methyl 3-[[2-[3-[(2,2-difluoro-1,3-benzodioxol-5-yl)-methyl-carbamoyl]phenyl]-5-(trifluoromethyl)pyrazol-3-yl]oxymethyl]bicyclo[1.1.1]pentane-1-carboxylate] | < 1000 |  |
| CN(C(=O)c1cccc(-n2nc(C(F)(F)F)cc2OCC23CC(C(=O)O)(C2)C3)c1)c1ccc2c(c1)OC(F)(F)O2 [compound 255, 3-[[2-[3-[(2,2-Difluoro-1,3-benzodioxol-5-yl)-methyl-carbamoyl]phenyl]-5-(trifluoromethyl)pyrazol-3-yl]oxymethyl]bicyclo[1.1.1]pentane-1-carboxylic acid] | < 1000 |  |
| Cc1cn2cc(N(C)C(=O)c3cccc(-n4nc(C(F)(F)F)c(Cl)c4COc4ccc(C(=O)O)cc4)c3)ccc2n1 [compound 256, 4-[[4-Chloro-2-[3-[methyl-(2-methylimidazo[1,2-a]pyridin-6-yl)carbamoyl]phenyl]-5-(trifluoromethyl)pyrazol-3-yl]methoxy]benzoic acid] | < 1000 |  |
| Cc1noc2cc(N(C)C(=O)c3cccc(-n4nc(C(F)(F)F)cc4OCc4ccc(C(=O)O)cc4)c3)ccc12 [compound 263, 4-[[2-[3-[Methyl-(3-methyl-1,2-benzoxazol-6-yl)carbamoyl]phenyl]-5-(trifluoromethyl)pyrazol-3-yl]oxymethyl]benzoic acid] | > 2000 |  |
| CN(C(=O)c1cccc(-n2nc(C(F)(F)F)cc2OC2CCN(C(=O)CCC(=O)O)CC2)c1)c1ccc2c(c1)OC(F)(F)O2 [compound 264, 4-[4-[2-[3-[(2,2-Difluoro-1,3-benzodioxol-5-yl)-methyl-carbamoyl]phenyl]-5-(trifluoromethyl)pyrazol-3-yl]oxy-1-piperidyl]-4-oxo-butanoic acid] | 1000 to 2000 |  |
| CN(C(=O)c1cccc(-n2nc(C(F)(F)F)cc2OCC2(C(=O)O)CC2)c1)c1ccc2c(c1)OC(F)(F)O2 [compound 265, 1-[[2-[3-[(2,2-Difluoro-1,3-benzodioxol-5-yl)-methyl-carbamoyl]phenyl]-5-(trifluoromethyl)pyrazol-3-yl]oxymethyl]cyclopropanecarboxylic acid] | > 2000 |  |
| CN(C(=O)c1cccc(-n2nc(C(F)(F)F)c(Cl)c2COc2ccc(C(=O)O)cc2)c1)c1cnc2c(c1)OCO2 [compound 267, 4-[[4-Chloro-2-[3-[[1,3]dioxolo[4,5-b]pyridin-6-yl (methyl)carbamoyl]phenyl]-5-(trifluoromethyl)pyrazol-3-yl]methoxy]benzoic acid] | < 1000 |  |
| CN(C(=O)c1cccc(-n2nc(C(F)F)c(C#N)c2COc2ccc(C(=O)O)cc2)c1)c1ccc2c(c1)OC(F)(F)O2 [compound 268, 4-[[4-cyano-2-[3-[(2,2-difluoro-1,3-benzodioxol-5-yl)-methyl-carbamoyl]phenyl]-5-(difluoromethyl)pyrazol-3-yl]methoxy]benzoic acid] | < 1000 |  |

Other lines, results leading:

| EC50 (mutant CFTR) [nM] | activity on HBE cells (ΔICFTR) (F508del-CFTR) | SMILES |
| --- | --- | --- |
| < 1000 |  | Cc1noc2cc(N(C)C(=O)c3cccc(-n4nc(C(F)(F)F)c(Cl)c4COc4ccc(C(=O)O)cc4)c3)ccc12 [compound 245, 4-[[4-Chloro-2-[3-[methyl-(3-methyl-1,2-benzoxazol-6-yl)carbamoyl]phenyl]-5-(trifluoromethyl)pyrazol-3-yl]methoxy]benzoic acid] |
| < 1000 |  | CN(C(=O)c1cccc(-n2nc(C(F)(F)F)c(Cl)c2COC2CC(C(=O)O)C2)c1)c1ccc2c(c1)OC(F)(F)O2 (stereo not drawn) [compound 257, 3-[[4-Chloro-2-[3-[(2,2-difluoro-1,3-benzodioxol-5-yl)-methyl-carbamoyl]phenyl]-5-(trifluoromethyl)pyrazol-3-yl]methoxy]cyclobutanecarboxylic acid] |
| < 1000 |  | CN(C(=O)c1cccc(-n2nc(C(F)(F)F)c(Cl)c2OCC23CC(C(=O)O)(C2)C3)c1)c1ccc2c(c1)OC(F)(F)O2 [compound 258, 3-[[4-Chloro-2-[3-[(2,2-difluoro-1,3-benzodioxol-5-yl)-methyl-carbamoyl]phenyl]-5-(trifluoromethyl)pyrazol-3-yl]oxymethyl]bicyclo[1.1.1]pentane-1-carboxylic acid] |
| < 1000 |  | CN(C(=O)c1cccc(-n2nc(C(F)(F)F)c(C#N)c2COc2ccc(C(=O)OC(C)(C)C)cc2)c1)c1ccc2c(c1)OC(F)(F)O2 [compound 259, Tert-butyl 4-[[4-cyano-2-[3-[(2,2-difluoro-1,3-benzodioxol-5-yl)-methyl-carbamoyl]phenyl]-5-(trifluoromethyl)pyrazol-3-yl]methoxy]benzoate] |
| < 1000 |  | CCOC(=O)CCC(=O)N1CCC(Oc2cc(C(F)(F)F)nn2-c2cccc(C(=O)N(C)c3ccc4c(c3)OC(F)(F)O4)c2)CC1 [compound 260, Ethyl 4-[4-[2-[3-[(2,2-difluoro-1,3-benzodioxol-5-yl)-methyl-carbamoyl]phenyl]-5-(trifluoromethyl)pyrazol-3-yl]oxy-1-piperidyl]-4-oxo-butanoate] |
| 1000 to 2000 |  | Cc1nc2ncc(N(C)C(=O)c3cccc(-n4nc(C(F)(F)F)c(Cl)c4C)c3)cc2o1 [compound 261, 3-[4-Chloro-5-methyl-3-(trifluoromethyl)pyrazol-1-yl]-N-methyl-N-(2-methyloxazolo[4,5-b]pyridin-6-yl)benzamide] |
| < 1000 |  | CN(C(=O)c1cccc(-n2nc(C(F)(F)F)cc2OCc2ccc(C(=O)O)cc2)c1)c1ccc2c(c1)OCC2 [compound 262, 4-[[2-[3-[2,3-Dihydrobenzofuran-6-yl(methyl)carbamoyl]phenyl]-5-(trifluoromethyl)pyrazol-3-yl]oxymethyl]benzoic acid] |
| > 2000 |  | Cc1c(N(C)C(=O)c2cccc(-n3nc(C(F)(F)F)c(Cl)c3C)c2)ccc2c1OCO2 [compound 269, 3-[4-chloro-5-methyl-3-(trifluoromethyl)pyrazol-1-yl]-N-methyl-N-(4-methyl-1,3-benzodioxol-5-yl)benzamide] |
